Experimental data as given in patent US20230172925A1, “SKIN-CARE COMPOSITIONS AND USES THEREOF” (AHAVA - DEAD SEA LABORATORIES LTD., priority 2019, published 2023).

Assays:
Format in all cases: cell-based
[1] = test system: human skin explants (epidermis); assay: Human skin organ culture without UVB stressor, topical exposure till 96 hours, viability by MTT assay; settings: no UVB; SDS 10% applied only once; after 96 hours
Experimental: (§1) Topical Exposure Till 96 Hours without External UVB Radiation as Stressor on Human Skin Model
(§2) Day 1: Topical application of 3 μl of each solution on the epidermis of each skin explant. Incubate for 24 hours. (SDS Irritation control: topical application of 3 ul SDS 10% was applied on the skin model at day 1 only. The rest of the days samples were untouched).
(§3) Day 2: Topical application of 3 μl of each solution on the epidermis of each skin explant. Incubate for 24 hours in fresh medium (medium was not collected). (UVB control: after 24 hours incubation with 3 μl H2O skin was irradiated with 200 mJ/cm2 UVB. The rest of the experiment days sample were topically applied with H2O, as control).
(§4) Day 3: Topical application of 3 μl of each solution on the epidermis of each skin explant. Incubate for 24 hours in fresh medium (medium was collected)—48 hours of total topical incubation.
(§5) Day 4: Topical application of 3 μl of each solution on the epidermis of each skin explant. Incubate for 24 hours in fresh medium (medium was collected)—72 hours of total topical incubation.
Day 5: Topical application of 3 μl of each solution on the epidermis of each skin explant. Incubate for 24 hours in fresh medium (medium was collected)—96 hours of total topical incubation. MTT assay was performed. […]
The viability of the various skin explants was measured by the MTT assay.

[2] = test system: TNFα; assay: Human skin organ culture without UVB stressor, TNFα secretion; settings: no UVB; SDS 10% applied once; after incubation of 48 hours
Experimental: as §1, §2, §3, §4, §5
(§6) Day 5: Topical application of 3 μl of each solution on the epidermis of each skin explant. Incubate for 24 hours in fresh medium (medium was collected)—96 hours of total topical incubation. MTT assay was performed.
FIG. 8 illustrates the TNFα secretion tested results. In FIG. 8 the TNFα secretion of the H2O sample was used as a control (0.35±0.05 pg/ml) for each time point.

[3] = test system: IL-1α; assay: Human skin organ culture with UVB stressor, IL-1α secretion in the medium; settings: SDS 10% applied once, incubation of 24 hours
Experimental: (§7) Topical exposure till 48 hours in total (24 hr recovery following topical application+24 hr after exposure to UVB irradiation) with UVB radiation as stressor on human skin model
(§8) The following general procedure was used in the study:
(§9) Day 1: Topical application of 3 μl of each sample solution on the epidermis of each skin explant. Incubate for 24 hours. SDS 10% was applied only once, and was not farther irradiated with UVB.
(§10) Day 2: Skin explants were washed once with PBS and irradiated with UVB lamp at 200 mJ/cm2. After radiation it was incubated for 30 min and then topically apply each treatment (sample solution) again. Control was not irradiated under UVB light. UVB radiated control was without any treatment except radiation.
(§11) Day 3: Viability and Caspase3 activity were measured for the epidermis layer. The medium was collected for cytokines test.
FIG. 5 illustrates the IL-1α secretion results in the medium as observed with 3 to 4 repetition of the tests. In FIG. 5 the IL-1α secretion of the irradiated sample “UVB” was selected as 100% and it equals 8.1±1.0 pg/ml.

[4] = test system: human skin explants (epidermis); assay: Human skin organ culture with UVB stressor, viability by MTT assay; settings: SDS 10% applied only once, not irradiated, 24 hours of incubation
Experimental: as §7, §8, §9, §10, §11
FIG. 2 illustrates a flow diagram of topical exposure/treatment till 48 hours, 24 hr recovery following topical application +24 hr after exposure to UVB irradiation) with UVB radiation as stressor on human skin model experiment. In the Experiment the SDS irritation control sample was a skin explant that was topical applied with 3 μl SDS 10% solution at day 1 only.
The viability of the various skin explants was measured by the 5-dimethylthiazol-2-yl]-2,5-diphenyl tetrazolium bromide (MTT) assay.

[5] = test system: TNFα; assay: Human skin organ culture with UVB stressor, TNFα secretion in the medium; settings: SDS 10%, one treatment, not irradiated
Experimental: as §7, §8, §9, §10, §11
FIG. 4 illustrates the TNFα secretion results in the medium as observed with 2 to 4 repetition of the tests. In FIG. 4 the TNFα secretion of the irradiated sample “UVB” was selected as 100% and it equals 53±30 pg/ml.

[6] = test system: IL-1α; assay: Human skin organ culture without UVB stressor, IL-1α secretion; settings: no UVB, SDS 10% applied once
Experimental: as §1, §2, §3, §4, §5, §6
FIG. 9A illustrates the IL-1α secretion results in the medium. In FIG. 9A the IL-1α secretion of the H2O sample was used as a control (9.0±0.7 pg/ml […]) for each time point. FIG. 9B is a magnification of FIG. 9A.

[7] = test system: MatTek EFT-400 full thickness tissues; assay: DNA microarray gene expression in skin equivalents, complex vs individual ingredients (Example 5); parameters: key to Genes up and downregulation in pathway: + = up-regulated; − = down-regulated; *non-significant down-regulation, thus, regulation is considered as non-affected (NA); settings: for Up-Regulated Genes (number): cut off of two fold change of adjusted Fold Change, 48 hours
Experimental: MatTek EFT-400 full thickness tissues were used as the model for this study. Upon arrival, the full thickness tissues were placed into 6 wells plates with 2 ml of culture media and incubated overnight at 37±2° C. and 5±1% CO2. After this overnight incubation the culture media was replaced with 5 ml of fresh media and the tissues were treated topically with the test materials prepared in distilled water as follows:
After the application of the test materials the tissues were incubated at 37±2° C. and […] for 48 hours.
At the end of the treatment period, the tissues were rinsed and transferred to a 2 ml centrifuge tube containing 700 μl of lysis buffer and homogenized. After centrifuging at 14,000×g for 10 minutes at 4° C. the supernatant from each tube was transferred to a new 1.5 ml tube and mixed with and equal volume of 64% ethanol. After mixing the solutions was transferred to glass fiber filter cartridges and the cartridges were loaded into a 1.5 ml collection tube centrifuged for 1 minute at 14,000 RPM in a Napco 2002 Microcentrifuge with a DA-6T fixed angle rotor. The flow through was discarded and any remaining mixture was loaded into the filter cartridge and the centrifugation process was repeated until all of the mixture had been processed. The filter was then washed to remove any residual cellular debris from the RNA bound to the glass fibers by subsequently applying 700 μl of wash solution 1 (1 time) and 500 μl of wash solution 2 (2 times) to the filter cartridge and centrifuging at 14,000 RPM for 1 minute to pass each wash through the cartridge. After each wash, the flow through was discarded. After the final wash one final spin was performed without wash solution to remove any residual wash solution in the filter cartridge. The RNA bound to the glass fibers within the cartridge was then eluted by applying 40 μl of TE buffer (10 mM Tris-HCl, 1 mM EDTA, preheated to 70-80° C.) to the cartridge and centrifuging the cartridge in a new collection tube at 14,000 RPM for one minute. The elution process was then repeated a second time using 20 μl of TE buffer.
First Strand cDNA Synthesis: To start the first strand synthesis, 10 μl of total RNA for each sample was added to a 600 μl PCR tube and the total volume of liquid in the tube will be adjusted to 11 μl with DEPC H2O. Next, 1 μl of T7 Oligo(dT) primer was added and the tube was incubated in a water bath at 70±2° C. for 10 minutes to denature the RNA and then placed on ice to allow the primers to anneal to the poly A ends of the mRNA. After cooling 2 μl of 10× first strand buffer, 1 μl of RNAse inhibitor and 4 μl of dNTP mix were added to each tube, and the tube was incubated at 42° C. in a hybridization oven (Labnet Problot). As soon as the tube was heated, 1 μl of Reverse Transcriptase was added and the tubes were returned to 42±2° C. for 2 hours. At the end of the two hours the tubes were briefly centrifuged to collect all of the fluid at the bottom of the tube and then placed on ice.
Two tubes were prepared for the labeling process, one for Cy3 labeling (green) and one for Cy5 labeling (red). To the Cy3 tube 2 μg of aRNA prepared from the untreated/control sample (the actual color assignment for each sample is not important, but for consistency Cy3 is normally used for the untreated sample) and enough DEPC H2O was added to bring the total volume up to 4 μl. To the Cy5 tube 2 μg of aRNA prepared from the sample treated with the test material and enough DEPC H2O was added to bring the total volume up to 4 μl. To both tubes 5 μl of ASAP labeling buffer was added along with 1 μl of the specific dye for the tube (Cy3 or Cy5). The tubes were incubated for 15 minutes at 85±2° C. At the end of the 15 minutes the tubes were placed on ice to cool them and then add 2.5 μl of ASAP stop solution was added to each tube.

[8] = KEGG_NUCLEOTIDE_EXCISION_REPAIR
[9] = KEGG_SIGNALING_PATHWAYS_REGULATING_PLURIPOTENCY_OF_STEM_CELLS
[10] = WIKI_ASSEMBLY_OF_COLLAGEN_FIBRILS_AND_OTHER_MULTIMERIC_STRUCTURES

SMILES: CCCCCCCCCCCCOS(=O)(=O)[O-].[Na+] [SDS]
- epidermis viability (MTT), % of the control value [1]: 15%
- TNFα secretion [2]: below the detection lever
- IL-1α secretion [3]: dramatically increased
- viability (MTT) of epidermis [4]: caused epidermis death
- TNFα secretion [5]: significant reduction
- IL-1α secretion level, times of the control value ([6]; after 48 hours): 6.5 times of the control value
- IL-1α secretion level, times of the control value ([6]; after 72 hours and 96 hours): 10.6 times of the control value

SMILES: NC(=O)c1cccnc1 [Niacinamide]
- z-score ([7]; KEGG_APOPTOSIS): −0.6704
- z-score ([7]; KEGG_BASE_EXCISION_REPAIR): 0.1343
- Genes up and downregulation in pathway ([7]; KEGG_CELL_CYCLE): −
- z-score ([7]; KEGG_CELL_CYCLE): −1.1781
- z-score ([7]; KEGG_CIRCADIAN_RHYTHM_MAMMAL): 0.1529
- z-score ([7]; KEGG_FATTY_ACID_BIOSYNTHESIS): −1.579
- z-score ([7]; KEGG_FATTY_ACID_DEGRADATION): −0.3119
- z-score ([7]; KEGG_GLYCOLYSIS_GLUCONEOGENESIS): 0.7976
- z-score ([7]; KEGG_NF_KAPPA_B_SIGNALING_PATHWAY): −0.7978
- Genes up and downregulation in pathway [7, 8]: −
- z-score [7, 8]: −0.2743
- z-score ([7]; KEGG_OXIDATIVE_PHOSPHORYLATION): 0.1959
- Genes up and downregulation in pathway ([7]; KEGG_P53_SIGNALING_PATHWAY): −
- z-score ([7]; KEGG_P53_SIGNALING_PATHWAY): −0.04133
- z-score ([7]; KEGG_PROTEASOME): −1.4338
- z-score ([7]; KEGG_RETINOL_METABOLISM): 0.7797
- Genes up and downregulation in pathway [7, 9]: −
- z-score [7, 9]: −1.5828
- z-score ([7]; KEGG_SPHINGOLIPID_METABOLISM): −1.4272
- z-score ([7]; KEGG_TH1_AND_TH2_CELL_DIFFERENTIATION): −0.6106
- z-score ([7]; KEGG_TIGHT_JUNCTION): 1.7592
- z-score ([7]; KEGG_TNF_SIGNALING_PATHWAY): −1.6603
- z-score ([7]; KEGG_T_CELL_RECEPTOR_SIGNALING_PATHWAY): −0.515
- z-score ([7]; KEGG_WNT_SIGNALING_PATHWAY): −0.8093
- z-score ([7]; WIKI_ACTIVATION_OF_MATRIX_METALLOPROTEINASES): 1.5758
- Genes up and downregulation in pathway [7, 10]: −
- z-score [7, 10]: −0.4818
- z-score ([7]; WIKI_COLLAGEN_BIOSYNTHESIS_AND_MODIFYING_ENZYMES): 1.0367
- z-score ([7]; WIKI_COLLAGEN_DEGRADATION): 0.7489
- z-score ([7]; WIKI_DEGRADATION_OF_THE_EXTRACELLULAR_MATRIX): 0.02517
- Genes up and downregulation in pathway ([7]; WIKI_ELASTIC_FIBRE_FORMATION): −
- z-score ([7]; WIKI_ELASTIC_FIBRE_FORMATION): −1.0086
- z-score ([7]; WIKI_ELECTRON_TRANSPORT_CHAIN_IN_MITOCHONDRIA): −0.6757
- z-score ([7]; WIKI_EXTRACELLULAR_MATRIX_ORGANIZATION): 0.2738
- Genes up and downregulation in pathway ([7]; WIKI_KERATINIZATION): +
- regulation of WIKI_KERATINIZATION pathway (Z-Score heatmap, in words) ([7]; WIKI_KERATINIZATION): up-regulated
- z-score ([7]; WIKI_KERATINIZATION): 7.5403
- z-score ([7]; WIKI_NRF2_PATHWAY): 2.1898
- z-score ([7]; WIKI_RESPIRATORY_ELECTRON_TRANSPORT_ATP_SYNTHESIS): −0.7571
- z-score ([7]; WIKI_SPHINGOLIPID_METABOLISM): −0.1492
- Up-Regulated Genes (number) ([7]; 19254 genes evaluated): 133
- Up-Regulated Genes (number) ([7]; second column of Table 6): 70
